# Measurements reported in US20250177412A1, “SMALL-MOLECULE INHIBITORS TARGETING THE BOB1/OCT1 INTERFACE” (NANTES UNIVERSITE, priority 2022, published 2025).
# Read-outs that look alike come from different tables or passages of the source.
# How the values were obtained:
# [1] = biological target: T1, ternary BOB1/POU1/PORE complex (Homo sapiens, UniProt P14859); assay: Electrophoretic mobility shift assay (EMSA); assay type: binding; conditions: 100 μM
# T1 construct: made in house; host or cells: E. coli BL21
# T1 sequence (P14859 280-438): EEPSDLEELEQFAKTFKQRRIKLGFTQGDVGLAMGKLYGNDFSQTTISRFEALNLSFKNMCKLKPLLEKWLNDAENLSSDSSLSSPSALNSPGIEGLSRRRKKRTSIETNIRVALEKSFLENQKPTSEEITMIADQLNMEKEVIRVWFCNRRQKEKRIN
# memory B cells = assay: High-throughput multiplex qPCR of B-cell-related genes; assay type: cell-based, human; conditions: 10 μM
# Procedure: FIGS. 4A-AA are a combination of heatmap plot and graphs showing expression of B-cell-related genes at day 4 and day 7 of the human B cell differentiation in vitro model in the presence of 0 μM and 10 μM of the compound 005 (n=6). Experimental conditions are as described in the FIG. 3. […] FIG. 4B-AA show expression of the selected genes at day 4 related to proliferation (FIG. 4B-D), plasma-cell differentiation (FIG. 4E-I), immunoglobulin isotype switching (FIG. 4J-M), B-cell identity (FIG. 4N-S), and B-cell activation (FIG. 4T-AA).
# [2] = tested on: CD4+CD25- effector T cells; assay: T cell suppression assay (B cell / CD4+CD25- T cell co-culture); assay type: cell-based, human; conditions: for inhibition at 10 µM: Homo sapiens, T-cell, read-out: T-cell proliferation (percentage inhibition)
# Procedure: B cells were kept unstimulated (B resting) or stimulated (B expanded) for 24 hours with the expansion mixture containing F(ab′)2 anti-BCR, CpG ODN, CD40L, IL-2, and IL-21. FIG. 6A-B show the expression level of granzyme B measured as frequency (FIG. 6A) and by the MFI (FIG. 6B) in DMSO-treated (compound 005-) and 10 μM compound 005-treated resting (open circles) and expanded for […] (closed circles) B cells. FIG. 6C-G show resting and expanded B cells washed with fresh medium and co-cultured with autologous CPD-labelled CD4^+CD25^− effector T cells for 3 days in the presence of anti-CD3/CD28 Dynabeads. compound 005 was added to the B cells only during 24-hours of activation with the expansion mixture (FIG. 6C-D), followed by daily supplementation during three days of co-culture (FIG. 6E-G). Representative offset histogram overlays showing median fluorescence intensity of staining of gated live […] with cell proliferation dye (CPD) (FIGS. 6C, 6E and 6F). The percentage of proliferating cells is indicated for one representative donor. FIGS. 6D and 6G show corresponding summarized data for the percentage inhibition of proliferation of anti-CD3/CD28-activated CD4^+CD25^− T cells co-cultured with resting (open circles) or expanded (closed circles) B cells without BOB1 inhibitor (DMSO-treated control) or in the presence of 10 μM compound 005. Bars indicate the mean±SD. ** P<0.01, *** P<0.001. FIG. 6H-J Expression values of POU2AF1 (FIG. 6H), POU2F1 (FIG. 6I), and POU2F2 (FIG. 6J) genes encoding BOB1, OCT1 and OCT2, respectively, extracted from scRNA-seq data on B cells stimulated toward regulatory (expanded) or unstimulated (rested). Data are represented with bar plots as mean+SD of non-zero values or with dot plots represented as a percentage of positive cells (FIG. 6H-J) or the average expression in each condition (FIG. 6K). P-values are adjusted to the number of expressed genes in the dataset.
# Cells were resuspended in PBS and labelled with Cell Proliferation Dye eFluor 450 (CPD) (eBioscience) at a final concentration of 10 μM at 37° C. for 10 min, kept on ice for 5 min, and washed twice with 10 mL of ice-cold RPMI 1640 10% FCS medium.
# Primary total human B cells (1×10^6 cells/mL) were prestimulated for ˜24 h with the cocktail containing 10 ng/mL of IL-21 (Miltenyi Biotec), 5 μg/mL of F(ab′)2 anti-BCR Abs (Jackson ImmunoResearch Laboratories Inc.), 50 ng/ml of CD40L (R&D systems), 1 μg/mL of CpG oligonucleotides (ODN 2006, Invivogen), and 50 U/mL of IL-2 (Novartis) as previously described, in the presence of vehicle (DMSO) or 10 μM compound 005. […] The capacity of B cells to suppress effector T cell proliferation was assessed as previously described. […] T cell proliferation was evaluated as the percentage of CPD-low T cells on day 3. […]
smiles,measurement,setting,value
"Cc1ccc(NC(=O)C2CN(c3nc(NCCCc4ccc(F)cc4)nc(NCCC(=O)O)n3)c3ccccc3O2)cc1Cl (stereo not shown) [compound 005, 3-((4-(2-((3-chloro-4-methylphenyl)carbamoyl)-2,3-dihydro-4H-benzo[b][1,4]oxazin-4-yl)-6-((3-(4-fluorophenyl)propyl)amino)-1,3,5-triazin-2-yl)amino)propanoic acid]",effect on ternary BOB1/POU1/PORE complex,[1],has not affected
same,expression of genes related to the B cell identity and activation,memory B cells,upregulated
same,expression of plasma cell related genes,memory B cells,suppressed
same,suppressive capacity of B expanded,[2]; 10 μM during the 24-hours pre-stimulation phase only,did not affect
same,suppression of effector T-cell proliferation,"[2]; 10 μM, co-cultures of T cells and B expanded",79.7±4.9
same,inhibition at 10 µM,"[2]; 72 h, 10 μM, T cells only, 3 days",53.7 ± 5.8%
same,inhibition at 10 µM,"[2]; 10 μM, co-cultures of T cells and B resting",52.1 ± 7.1%
